Experiments:
Test in all cases: voltage clamp of Xenopus oocytes
Format in all cases: cell-based
CquiOR32-CquiOrco [1] = target: T1, CquiOR32-CquiOrco (Culex quinquefasciatus, UniProt A0A3S7SHH6); conditions: agonist (inward current), dose-dependent, coexpressed with CquiOrco
T1 construct: gene OR32; full-length OR coexpressed with Orco in Xenopus oocytes; heteromeric ligand-gated cation channel; with Odorant receptor coreceptor Orco
T1 sequence (A0A3S7SHH6 1-397): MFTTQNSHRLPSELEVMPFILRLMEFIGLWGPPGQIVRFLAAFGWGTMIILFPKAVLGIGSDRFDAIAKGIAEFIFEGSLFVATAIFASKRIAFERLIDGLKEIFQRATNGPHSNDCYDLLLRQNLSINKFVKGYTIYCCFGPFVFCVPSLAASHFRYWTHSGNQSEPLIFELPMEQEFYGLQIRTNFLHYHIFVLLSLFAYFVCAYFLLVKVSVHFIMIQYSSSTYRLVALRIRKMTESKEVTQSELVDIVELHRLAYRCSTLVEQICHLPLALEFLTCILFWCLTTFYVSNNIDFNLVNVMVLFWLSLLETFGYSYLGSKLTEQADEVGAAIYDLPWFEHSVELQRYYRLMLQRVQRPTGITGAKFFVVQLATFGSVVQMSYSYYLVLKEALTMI
T1 sequence (Q309I4 1-480 partner): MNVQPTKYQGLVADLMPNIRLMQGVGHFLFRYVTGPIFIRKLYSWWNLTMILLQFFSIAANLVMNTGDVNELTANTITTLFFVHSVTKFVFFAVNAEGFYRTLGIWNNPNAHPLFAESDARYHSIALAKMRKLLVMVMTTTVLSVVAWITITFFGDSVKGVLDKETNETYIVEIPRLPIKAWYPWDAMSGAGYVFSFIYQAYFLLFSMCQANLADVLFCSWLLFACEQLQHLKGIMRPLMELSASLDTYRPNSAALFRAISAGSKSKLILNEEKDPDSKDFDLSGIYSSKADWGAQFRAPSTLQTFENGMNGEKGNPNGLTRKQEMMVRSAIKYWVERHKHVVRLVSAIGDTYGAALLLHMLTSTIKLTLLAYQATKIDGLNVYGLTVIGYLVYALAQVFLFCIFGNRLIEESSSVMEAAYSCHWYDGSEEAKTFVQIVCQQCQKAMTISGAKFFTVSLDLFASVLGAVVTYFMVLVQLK

CquiOR32-CquiOrco [2] = target: T1, CquiOR32-CquiOrco; conditions: inhibitor (reverse current), coexpressed with CquiOrco
CquiOR32-CquiOrco [3] = target: T1, CquiOR32-CquiOrco; conditions: agonist (inward current), absolute value, coexpressed with CquiOrco
CquiOR32-CquiOrco [4] = target: T1, CquiOR32-CquiOrco; conditions: inhibitor (reverse current), absolute value, coexpressed with CquiOrco
CquiOrco = target: T2, CquiOrco (Culex quinquefasciatus, UniProt Q309I4); conditions: Orco agonist; Orco expressed alone
T2 construct: full-length Orco expressed alone in Xenopus oocytes
T2 sequence (Q309I4 1-480): T1 sequence (Q309I4 1-480 partner)

## CC1=NCCS1 [2MT, 2-methyl-2-thiazoline]
CquiOR32-CquiOrco [1]; 1 mM (Figure 1A)
  inward current: various odorants, including cyclohexanone, methyl salicylate, and 2-methyl-2-thiazoline

## CC12CCC(CC1)C(C)(C)O2 [EUC, eucalyptol]
CquiOR32-CquiOrco [2]; dose-dependent, also reduces methyl salicylate response, proposed negative allosteric modulator
  reverse current: eucalyptol generated currents in the reverse direction

## O=C1CCCCC1 [CYC, cyclohexanone]
CquiOR32-CquiOrco [1]; 1 mM (Figure 1A)
  inward current: various odorants, including cyclohexanone, methyl salicylate, and 2-methyl-2-thiazoline

## CCC1CCC(=O)O1 (stereo not drawn) [γ-hexalactone]
CquiOR32-CquiOrco [3]
  inward current at 1 mM: 115 ± 14 nA

## COc1ccccc1O [guaiacol]
CquiOR32-CquiOrco [3]
  inward current at 1 mM: 101 ± 11 nA

## CCN(CC)C(=O)c1cccc(C)c1 [DEET]
CquiOR32-CquiOrco [2]; 1 mM (Figure 1A)
  reverse current: eucalyptol, fenchone, DEET, picaridin, IR3535, PMD, and other compounds generated currents in reverse direction

## COC(=O)c1ccccc1O [MS, methyl salicylate]
CquiOR32-CquiOrco [1]
  inward current: Methyl salicylate elicited inward currents, and eucalyptol generated currents in the reverse direction

## CCC(C)OC(=O)N1CCCCC1CCO (stereo not drawn) [picaridin]
CquiOR32-CquiOrco [2]; 1 mM (Figure 1A)
  reverse current: eucalyptol, fenchone, DEET, picaridin, IR3535, PMD, and other compounds generated currents in reverse direction

## CCC(C)=O [2-butanone]
CquiOR32-CquiOrco [3]
  inward current at 1 mM: 45 ± 7 nA

## CC1=CC=C(C(C)C)CC1 [α-terpinene]
CquiOR32-CquiOrco [4]
  reverse current at 1 mM: 43 ± 5 nA

## CC12CCC(C1)C(C)(C)C2=O (stereo not drawn) [FEN, fenchone]
CquiOR32-CquiOrco [2]; 1 mM (Figure 1A)
  reverse current: eucalyptol, fenchone, DEET, picaridin, IR3535, PMD, and other compounds generated currents in reverse direction

## CC(=O)c1ccccc1 [acetophenone]
CquiOR32-CquiOrco [3]
  inward current at 1 mM: 58 ± 12 nA

## OCCc1ccccc1 [2-phenylethanol]
CquiOR32-CquiOrco [3]
  inward current at 1 mM: 44 ± 9 nA

## CCc1ccc(NC(=O)CSc2nnc(-c3cccnc3)n2CC)cc1 [VUAA-1]
CquiOrco
  current: Response of a CquiOrco-expressing oocyte to Orco agonist, VUAA-1, is displayed in an inset.

## CC1=CCC(=C(C)C)CC1 [terpinolene]
CquiOR32-CquiOrco [4]
  reverse current at 1 mM: 38 ± 8 nA
